# Activity calls are given as the source filed them. The calls are words filed in the database; no cut-off is given here.
# Legend:
# Mus musculus [1] = test: Improvement of social recognition memory in juvenile familiar male C57Bl6 mouse assessed as discrimination index at 25 nmol/uL, ICV administered post acquisition phase and measured after 48 hrs at retention test phase in presence of tacrine (reference value: -0.07+/-0.0124); type: functional
# Mus musculus [2] = test: Improvement of social recognition memory in juvenile unfamiliar male C57Bl6 mouse assessed as reduction in exploration time at 5 nmol/uL, ICV administered post acquisition phase and measured after 48 hrs at retention test phase in presence of tacrine; type: functional, organism-based
# Mus musculus [3] = test: Improvement of social recognition memory in juvenile unfamiliar male C57Bl6 mouse assessed as reduction in exploration time at 25 nmol/uL, ICV administered post acquisition phase and measured after 48 hrs at retention test phase in presence of tacrine; type: functional, organism-based
# Mus musculus [4] = test: Improvement of social recognition memory in juvenile familiar male C57Bl6 mouse assessed as reduction in exploration time at 5 nmol/uL, ICV administered post acquisition phase and measured after 48 hrs at retention test phase in presence of tacrine; type: functional, organism-based
# Mus musculus [5] = test: Improvement of social recognition memory in juvenile familiar male C57Bl6 mouse assessed as reduction in exploration time at 25 nmol/uL, ICV administered post acquisition phase and measured after 48 hrs at retention test phase in presence of tacrine; type: functional, organism-based
# Mus musculus [6] = test: Improvement of social recognition memory in juvenile familiar male C57Bl6 mouse assessed as discrimination index at 50 nmol/uL, ICV administered post acquisition phase and measured after 48 hrs at retention test phase (reference value: -0.07+/-0.0124); type: functional
# [7] = biological target: Carbonic anhydrase 4 (Homo sapiens) (UniProt P22748)
# Chain of Carbonic anhydrase 4 (Homo sapiens) (P22748 whole entry): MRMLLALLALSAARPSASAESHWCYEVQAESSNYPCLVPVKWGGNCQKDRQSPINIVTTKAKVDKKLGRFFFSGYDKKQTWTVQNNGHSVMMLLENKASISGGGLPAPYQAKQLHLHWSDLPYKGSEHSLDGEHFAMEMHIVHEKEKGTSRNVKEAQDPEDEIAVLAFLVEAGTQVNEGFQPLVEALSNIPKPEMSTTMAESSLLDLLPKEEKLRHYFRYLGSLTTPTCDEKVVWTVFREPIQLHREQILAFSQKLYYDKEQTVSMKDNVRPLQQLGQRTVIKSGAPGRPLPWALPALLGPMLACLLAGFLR
# Description: Binding affinity to human carbonic anhydrase 4 assessed as activation constant by phenol red dye based stopped-flow method
# Mus musculus [8] = test: Improvement of social recognition memory in juvenile unfamiliar male C57Bl6 mouse assessed as reduction in exploration time at 0.5 nmol/uL, ICV administered post acquisition phase and measured after 48 hrs at retention test phase; type: functional, organism-based
# Acetylcholinesterase = Acetylcholinesterase (Electrophorus electricus, UniProt O42275)
# Chain of Acetylcholinesterase (O42275 whole entry): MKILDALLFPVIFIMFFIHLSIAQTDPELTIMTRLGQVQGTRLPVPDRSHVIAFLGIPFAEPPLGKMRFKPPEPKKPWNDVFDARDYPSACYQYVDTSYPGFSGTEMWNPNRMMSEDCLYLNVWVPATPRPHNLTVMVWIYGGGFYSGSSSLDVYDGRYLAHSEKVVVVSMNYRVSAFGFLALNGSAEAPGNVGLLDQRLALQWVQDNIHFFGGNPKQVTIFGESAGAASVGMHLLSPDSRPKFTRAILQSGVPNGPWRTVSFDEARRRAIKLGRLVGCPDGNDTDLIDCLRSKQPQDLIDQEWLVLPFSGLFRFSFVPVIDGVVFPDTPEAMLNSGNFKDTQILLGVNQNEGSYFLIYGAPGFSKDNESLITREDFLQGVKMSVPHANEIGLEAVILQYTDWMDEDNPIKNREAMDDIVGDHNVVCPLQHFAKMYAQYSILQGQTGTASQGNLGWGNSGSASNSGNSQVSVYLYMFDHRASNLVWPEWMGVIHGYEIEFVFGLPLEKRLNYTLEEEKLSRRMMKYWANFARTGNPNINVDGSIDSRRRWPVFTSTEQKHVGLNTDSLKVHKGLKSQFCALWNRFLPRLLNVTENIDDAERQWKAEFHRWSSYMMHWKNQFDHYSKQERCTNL
# Description: Inhibition of electric eel AChE by microplate reader based analysis
# [9] = biological target: Carbonic anhydrase 5B, mitochondrial (Homo sapiens) (UniProt Q9Y2D0)
# Chain of Carbonic anhydrase 5B, mitochondrial (Homo sapiens) (Q9Y2D0 whole entry): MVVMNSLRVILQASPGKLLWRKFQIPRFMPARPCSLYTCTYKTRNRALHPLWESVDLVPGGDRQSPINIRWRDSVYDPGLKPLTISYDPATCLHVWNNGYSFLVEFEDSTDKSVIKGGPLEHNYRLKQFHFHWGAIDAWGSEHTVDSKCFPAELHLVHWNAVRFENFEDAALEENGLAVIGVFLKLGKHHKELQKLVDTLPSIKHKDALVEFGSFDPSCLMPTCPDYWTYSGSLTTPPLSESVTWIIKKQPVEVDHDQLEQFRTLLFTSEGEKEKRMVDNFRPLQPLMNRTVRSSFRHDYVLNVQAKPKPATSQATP
# Description: Binding affinity to human carbonic anhydrase 5B assessed as activation constant by phenol red dye based stopped-flow method
# Mus musculus [10] = test: Improvement of social recognition memory in juvenile unfamiliar male C57Bl6 mouse assessed as reduction in exploration time by measuring discrimination index at 0.5 nmol/uL, ICV administered post acquisition phase and measured after 48 hrs at retention test phase; type: functional, organism-based
# [11] = biological target: Carbonic anhydrase 1 (Homo sapiens) (UniProt P00915)
# Chain of Carbonic anhydrase 1 (Homo sapiens) (P00915 2-261 limits assumed): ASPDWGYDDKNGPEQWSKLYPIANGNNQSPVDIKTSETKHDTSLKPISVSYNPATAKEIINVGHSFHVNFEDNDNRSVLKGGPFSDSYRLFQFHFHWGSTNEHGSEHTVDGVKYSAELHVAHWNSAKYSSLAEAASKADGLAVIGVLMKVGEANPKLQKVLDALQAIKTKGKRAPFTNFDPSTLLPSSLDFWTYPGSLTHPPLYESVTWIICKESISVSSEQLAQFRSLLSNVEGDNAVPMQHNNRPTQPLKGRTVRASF
# Description: Binding affinity to human carbonic anhydrase 1 assessed as activation constant by phenol red dye based stopped-flow method
# [12] = biological target: Carbonic anhydrase 2 (Homo sapiens) (UniProt P00918)
# Description: Binding affinity to human carbonic anhydrase 2 assessed as activation constant by phenol red dye based stopped-flow method
# [13] = biological target: Carbonic anhydrase 7 (Homo sapiens) (UniProt P43166)
# Chain of Carbonic anhydrase 7 (Homo sapiens) (P43166 whole entry): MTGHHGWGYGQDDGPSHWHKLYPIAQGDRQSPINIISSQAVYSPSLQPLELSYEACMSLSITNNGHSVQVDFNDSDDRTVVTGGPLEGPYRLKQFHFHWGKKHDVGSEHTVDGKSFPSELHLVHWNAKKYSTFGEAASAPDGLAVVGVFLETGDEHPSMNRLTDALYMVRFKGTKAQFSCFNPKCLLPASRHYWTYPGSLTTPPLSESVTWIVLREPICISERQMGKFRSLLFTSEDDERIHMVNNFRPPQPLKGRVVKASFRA
# Description: Binding affinity to human carbonic anhydrase 7 assessed as activation constant by phenol red dye based stopped-flow method
# Mus musculus [14] = test: Improvement of social recognition memory in juvenile familiar male C57Bl6 mouse assessed as reduction in exploration time by measuring discrimination index at 0.5 nmol/uL, ICV administered post acquisition phase and measured after 48 hrs at retention test phase; type: functional, organism-based
# Cholinesterase = Cholinesterase (Equus caballus, UniProt P81908)
# Chain of Cholinesterase (P81908 whole entry): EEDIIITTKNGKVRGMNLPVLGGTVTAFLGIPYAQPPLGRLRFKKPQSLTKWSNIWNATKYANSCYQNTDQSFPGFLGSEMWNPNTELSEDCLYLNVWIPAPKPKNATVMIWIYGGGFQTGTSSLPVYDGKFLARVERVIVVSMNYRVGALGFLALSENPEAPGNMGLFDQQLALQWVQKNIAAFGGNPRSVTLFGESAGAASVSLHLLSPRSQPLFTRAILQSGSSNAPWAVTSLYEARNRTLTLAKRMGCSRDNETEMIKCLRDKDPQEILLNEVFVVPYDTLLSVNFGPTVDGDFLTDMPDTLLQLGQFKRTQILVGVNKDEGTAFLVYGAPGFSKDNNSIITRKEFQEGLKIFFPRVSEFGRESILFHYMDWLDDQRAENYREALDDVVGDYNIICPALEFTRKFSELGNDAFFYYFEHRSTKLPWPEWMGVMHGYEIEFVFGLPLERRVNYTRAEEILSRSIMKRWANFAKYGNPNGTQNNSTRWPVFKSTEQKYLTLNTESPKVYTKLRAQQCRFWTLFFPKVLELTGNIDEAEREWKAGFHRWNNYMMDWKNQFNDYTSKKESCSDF
# Description: Inhibition of equine serum BuChE by microplate reader based analysis
# Mus musculus [15] = test: Improvement of social recognition memory in juvenile familiar male C57Bl6 mouse assessed as reduction in exploration time at 0.5 nmol/uL, ICV administered post acquisition phase and measured after 48 hrs at retention test phase; type: functional, organism-based
# Mus musculus [16] = test: Improvement of social recognition memory in juvenile unfamiliar male C57Bl6 mouse assessed as reduction in exploration time at 0.5 to 25 nmol/uL, ICV administered post acquisition phase and measured after 48 hrs at retention test phase; type: functional, organism-based; conditions: dose 0.5-25 nmol/uL
# Mus musculus [17] = test: Improvement of social recognition memory in juvenile familiar male C57Bl6 mouse assessed as reduction in exploration time by measuring discrimination index at 0.1 nmol/uL, ICV administered post acquisition phase and measured after 48 hrs at retention test phase; type: functional, organism-based
# Mus musculus [18] = test: Improvement of social recognition memory in juvenile unfamiliar male C57Bl6 mouse assessed as reduction in exploration time by measuring discrimination index at 0.1 nmol/uL, ICV administered post acquisition phase and measured after 48 hrs at retention test phase; type: functional, organism-based
# Mus musculus [19] = test: Improvement of social recognition memory in juvenile familiar male C57Bl6 mouse assessed as reduction in exploration time at 0.1 nmol/uL, ICV administered post acquisition phase and measured after 48 hrs at retention test phase; type: functional, organism-based
# Mus musculus [20] = test: Improvement of social recognition memory in juvenile familiar male C57Bl6 mouse assessed as reduction in exploration time at 0.5 to 25 nmol/uL, ICV administered post acquisition phase and measured after 48 hrs at retention test phase; type: functional, organism-based; conditions: dose 0.5-25 nmol/uL
# Mus musculus [21] = test: Improvement of social recognition memory in juvenile unfamiliar male C57Bl6 mouse assessed as reduction in exploration time at 0.1 nmol/uL, ICV administered post acquisition phase and measured after 48 hrs at retention test phase; type: functional, organism-based
SMILES,KA ([7]; filed as activator),IC50 (Acetylcholinesterase),KA ([9]; filed as activator),KA ([11]; filed as activator),KA ([12]; filed as activator),KA ([13]; filed as activator),IC50 (Cholinesterase),KA [9],other results
N[C@H](Cc1ccccc1)C(=O)O [D-PHENYLALANINE],–,–,–,–,–,–,–,–,Activity_index (Mus musculus [1]): 0.205; Activity (Mus musculus [2]): inactive; Activity (Mus musculus [3]): Active; Activity (Mus musculus [4]): inactive; Activity (Mus musculus [5]): Active; Activity_index (Mus musculus [6]): 0.373
N[C@@H](CCCCNC(=O)OCc1ccccc1)C(=O)NCCCNc1c2c(nc3ccccc13)CCCC2,8.52 µM,110 nM,4.95 µM,2080 nM,1200 nM,3080 nM,0.3 nM,–,Activity (Mus musculus [8]): inactive; Activity (Mus musculus [10]): inactive; Activity (Mus musculus [14]): inactive; Activity (Mus musculus [15]): inactive
N[C@@H](Cc1c[nH]cn1)C(=O)NCCCCCNc1c2c(nc3ccccc13)CCCC2,0.757 µM,29.8 nM,1.01 µM,565 nM,65.1 nM,96.4 nM,6.8 nM,–,Activity (Mus musculus [16]): Active; Activity (Mus musculus [17]): inactive; Activity (Mus musculus [18]): inactive; Activity (Mus musculus [19]): inactive; Activity (Mus musculus [20]): Active; Activity (Mus musculus [21]): inactive
CC(C)(C)OC(=O)N[C@@H](Cc1c[nH]c2ccccc12)C(=O)NCCCNc1c2c(nc3ccccc13)CCCC2,21.7 µM,426 nM,–,1920 nM,5180 nM,1920 nM,0.5 nM,> 50 µM,–
CC(C)(C)OC(=O)N[C@@H](CCCCNC(=O)OCc1ccccc1)C(=O)NCCCNc1c2c(nc3ccccc13)CCCC2,–,419 nM,–,–,–,–,0.25 nM,> 50 µM,KA [7]: > 50 µM; KA [11]: > 50000 nM; KA [12]: > 50000 nM; KA [13]: > 50000 nM
N[C@@H](Cc1ccccc1)C(=O)NCCCCCNc1c2c(nc3ccccc13)CCCC2,2.61 µM,7.4 nM,1.32 µM,782 nM,93.4 nM,192 nM,1.9 nM,–,Activity (Mus musculus [16]): Active; Activity (Mus musculus [17]): inactive; Activity (Mus musculus [18]): inactive; Activity (Mus musculus [19]): inactive; Activity (Mus musculus [20]): Active; Activity (Mus musculus [21]): inactive
CC(C)(C)OC(=O)N[C@@H](Cc1ccccc1)C(=O)NCCCCCCNc1c2c(nc3ccccc13)CCCC2,–,9.9 nM,–,–,–,–,0.091 nM,> 50 µM,KA [7]: > 50 µM; KA [11]: > 50000 nM; KA [12]: > 50000 nM; KA [13]: > 50000 nM
CC(C)(C)OC(=O)N[C@@H](Cc1c[nH]c2ccccc12)C(=O)NCCCCCNc1c2c(nc3ccccc13)CCCC2,5.67 µM,108 nM,7.15 µM,1010 nM,2940 nM,1020 nM,0.22 nM,–,–
CC(C)(C)OC(=O)N[C@@H](Cc1ccccc1)C(=O)NCCCCCNc1c2c(nc3ccccc13)CCCC2,–,243 nM,–,–,–,–,0.34 nM,> 50 µM,KA [7]: > 50 µM; KA [11]: > 50000 nM; KA [12]: > 50000 nM; KA [13]: > 50000 nM
COC(=O)[C@H](Cc1ccc(OCCCCCCNc2c3c(nc4ccccc24)CCCC3)cc1)NC(=O)OC(C)(C)C,–,16 nM,–,–,–,–,0.11 nM,> 50 µM,KA [7]: > 50 µM; KA [11]: > 50000 nM; KA [12]: > 50000 nM; KA [13]: > 50000 nM
COC(=O)[C@H](Cc1c[nH]cn1)NCCCCCCNc1c2c(nc3ccccc13)CCCC2,0.918 µM,72.1 nM,0.893 µM,266 nM,76.9 nM,98 nM,4.2 nM,–,Activity (Mus musculus [16]): Active; Activity (Mus musculus [17]): inactive; Activity (Mus musculus [18]): inactive; Activity (Mus musculus [19]): inactive; Activity (Mus musculus [20]): Active; Activity (Mus musculus [21]): inactive
COC(=O)[C@H](Cc1c[nH]cn1)NCCCCCNc1c2c(nc3ccccc13)CCCC2,3.65 µM,143 nM,2.43 µM,311 nM,175 nM,211 nM,4.4 nM,–,–
COC(=O)[C@H](Cc1ccc(OCCCCCNc2c3c(nc4ccccc24)CCCC3)cc1)NC(=O)OC(C)(C)C,–,65.4 nM,–,–,–,–,> 15.3 nM,> 50 µM,KA [7]: > 50 µM; KA [11]: > 50000 nM; KA [12]: > 50000 nM; KA [13]: > 50000 nM
N[C@@H](Cc1ccccc1)C(=O)NCCCCCCNc1c2c(nc3ccccc13)CCCC2,4.78 µM,78 nM,4.64 µM,481 nM,157 nM,160 nM,2.7 nM,–,–
COC(=O)[C@@H](N)Cc1ccc(OCCCCCNc2c3c(nc4ccccc24)CCCC3)cc1,16.8 µM,22.1 nM,1.73 µM,552 nM,372 nM,803 nM,0.048 nM,–,–
CC(C)(C)OC(=O)N[C@@H](Cc1c[nH]c2ccccc12)C(=O)NCCCCCCNc1c2c(nc3ccccc13)CCCC2,4.46 µM,15.9 nM,24.2 µM,1120 nM,2660 nM,1130 nM,0.26 nM,–,–
N[C@@H](CCCCNC(=O)OCc1ccccc1)C(=O)NCCCCNc1c2c(nc3ccccc13)CCCC2,9.73 µM,250 nM,1.4 µM,3270 nM,1900 nM,975 nM,2.5 nM,–,–
COC(=O)[C@H](Cc1ccccc1)NCCCCCNc1c2c(nc3ccccc13)CCCC2,3.45 µM,110 nM,5.32 µM,731 nM,247 nM,535 nM,3.8 nM,–,–

# — ChEMBL document CHEMBL5579900, “Enhanced Recognition Memory through Dual Modulation of Brain Carbonic Anhydrases and Cholinesterases” (J Med Chem, 2024)
